Five compounds from patent US6573219B1, “Substituted heterocyclyl-2H-chromenes” (Bayer Aktiengesellschaft, priority 1999, dated 2003) can be followed below.

For data set [1], the system named is weeds. The data set is described as follows: Pre-emergence test (Example A), weeds. The data set is classed as in vivo. As to conditions: soil sprayed 24 hours after sowing, rated after three weeks. The source says:
(§1) Solvent: 5 parts by weight of acetone
(§2) Emulsifier: 1 part by weight of alkylaryl polyglycol ether
Seeds of the test plants are sown in normal soil.
(§3) After three weeks, the degree of damage to the plants is rated in % damage in comparison to the development of the untreated control.

The test system of data set [2] is weeds. The data set is described as follows: Post-emergence test (Example B), weeds. The class given is in vivo. As to conditions: test plants of 5-15 cm sprayed, rated after three weeks.
Excerpt: as §1, §2, §3

Data set [3] can be described thus: LogP determination by HPLC (EEC directive 79/831 Annex V.A8, reversed-phase C18). The class given is physicochemical. As to conditions: reversed-phase C18 HPLC column, mobile phase range not labelled. As to the method: The LogP values given in Table 1 were determined in accordance with EEC directive 79/831 Annex V.A8 by HPLC (High Performance Liquid Chromatography) using a reversed-phase column (C 18). Temperature: 43° C.
(a) Mobile phases for the determination in the acidic range: 0.1% aqueous phosphoric acid, acetonitrile; linear gradient from 10% acetonitrile to 90% acetonitrile—the corresponding data in Table 1 are labelled^a).
(b) Mobile phases for the determination in the neutral range, 0.01 molar aqueous phosphate buffer solution, acetonitrile; linear gradient from 10% acetonitrile to 90% acetonitrile—the corresponding data in Table 1 are labelled b
Calibration was carried out using unbranched alkan-2-ones (with from 3 to 16 carbon atoms) whose logP values are known (determination of the logP values by the retention times using linear interpolation between two successive alkanones).

SMILES strings stand for the structures.

Consider `CC1C=Cc2c(c(C#N)cc(F)c2-n2c(=O)cc(C(F)(F)F)n(N)c2=O)O1` (stereo not shown) [Example 1], for which the “activity against weeds (degree of damage)” value in data set [1] is recorded as “very strong activity”.

The term chromatographic logP denotes lipophilicity estimated from chromatographic retention. The term melting point denotes the temperature of the solid-liquid transition. Regarding `CC1C=Cc2c(c(C#N)cc(F)c2-n2nc(C(F)(F)F)n(C)c2=S)O1` (stereo not shown) [Example 2], the melting point came out at 144 °C. The “activity against weeds (degree of damage)” value in data set [2] is given as “very strong activity”. The chromatographic logP in data set [3] was determined as 3.37.

Consider `C#CC(C)Oc1cc(N2C(=O)c3ccccc3C2=O)c(F)cc1C#N` (stereo not shown) [Example (II-2), N-[2-fluoro-4-cyano-5-(but-1-in-3-yl)-oxyphenyl]-phthalimide], for which the melting point turned out to be 170 °C. The chromatographic logP in data set [3] came out at 2.92.

The compound `N#Cc1cc(F)c(N2C(=O)c3ccccc3C2=O)cc1O` [N-(2-fluoro-4-cyano-5-hydroxy-phenyl)-phthalimide] registered a melting point of 247 °C. The compound further came in with a chromatographic logP in data set [3] of 2.04.

`COc1cc(N2C(=O)c3ccccc3C2=O)c(F)cc1C#N` [N-(2-fluoro-4-cyano-5-methoxy-phenyl)-phthalimide] displayed a melting point of 245 °C. Moreover, the chromatographic logP in data set [3] was 2.51.
